The values below come from ChEMBL document CHEMBL1148994, “On the active principles of the spurge family, X. Skin irritants, cocarcinogens, and cryptic cocarcinogens from the latex of the manchineel tree” (J Nat Prod, 1984).

Structures are written as SMILES.

Data set [1] can be described thus: Toxicity in NMRI mouse back skin assessed as survival rate at 11.7 ug for 48 weeks measured after 24 weeks. It counts as organism-based, Zone of skin. The following applies: in vivo, topical or ocular, read-out: Activity.
Data set [2] can be described thus: Toxicity in NMRI mouse assessed as survival rate at 3.1 ug for 48 weeks measured after 24 weeks. Format: organism-based. The following applies: in vivo, read-out: Activity.
Data set [3] is described as follows: Toxicity in NMRI mouse assessed as survival rate at 12.2 ug for 34 weeks measured after 24 weeks. It counts as organism-based. To be noted: in vivo, read-out: Activity.
The species named for data set [4] is Mus musculus. The data set is described as follows: Carcinogenic activity in NMRI mouse assessed as number of tumor bearing mouse at 12.2 ug for 34 weeks measured after 12 weeks. The following applies: in vivo, 2016 h. Format: ADME, organism-based.
For data set [5], the species on record is Mus musculus. The data set is described as follows: Toxicity in NMRI mouse assessed as drug level required for irritant activity in 50% animal assessed per ear. It counts as organism-based. To be noted: in vivo.
The species named for data set [6] is Mus musculus. The data set is described as follows: Carcinogenic activity in NMRI mouse assessed as number of tumors per mouse at 12.2 ug for 34 weeks measured after 12 weeks. To be noted: in vivo, 2016 h. It counts as ADME, organism-based.

On to `C=C(C)[C@]12C[C@@H](C)[C@@]34O[C@](/C=C/C=C/CCCCCCCCC)(O[C@@H]1[C@@H]3[C@@H]1O[C@]1(CO)[C@@H](O)[C@]1(O)C(=O)C(C)=C[C@H]14)O2`, for which the survival at 4032 h in data set [1] and in data set [2] was 96% throughout.
As for `CCCCCCCCC/C=C/C=C/C=C/C(=O)O[C@@]12C[C@@H](C)[C@@]3(O)[C@H]([C@@H]1C2(C)C)[C@@H]1O[C@]1(CO)[C@@H](O)[C@]1(O)C(=O)C(C)=C[C@H]13` [MANCINELLIN], the survival at 4032 h in data set [3] was determined as 100%. Besides, the Activity entry is “Not Active” in data set [4], 0.15 µg in data set [5] and “Not Active” in data set [6].
With `CCCCCCCCCCCCCC(=O)O[C@@H]1[C@@H](C)[C@@]2(O)[C@@H](C=C(CO)C[C@]3(O)C(=O)C(C)=C[C@@H]23)[C@@H]2C(C)(C)[C@]12OC(C)=O` [TETRADECANOYL PHORBOL ACETATE], in data set [5], the Activity is 0.01 µg. The survival at 4032 h in data set [2] was determined as 96%.
